Reference: patent US9981975B2, “Pyrrolotriazine compounds as tam inhibitors” (Incyte Corporation, priority 2016, dated 2018)

Key:
Assay type in all cases: biochemical
[1] = target: Tyro3 (Homo sapiens (Human), UniProt Q06418); assay: TAM Enzymatic Assay (HTRF), Tyro3; settings: Tyro3, 60 min, room temperature
Procedure, shortened: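 Reactions ran 60 min at room temperature, protected from light, started by substrate addition to enzyme plus DMSO compound, in pH 7.5 HEPES buffer with 10 mM MgCl2, 1 mM EGTA, 0.01% NP-40, 2 mM DTT.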

[2] = target: phosphor-Axl (Homo sapiens (Human), UniProt P30530); assay: TAM Enzymatic Assay (HTRF), Axl; settings: recombinant autophosphorylated Axl, 60 min, room temperature
Procedure: Autophosphorylation of Axl was carried out by incubating the recombinant Axl protein (Life Technologies, PV4275) in buffer containing 50 mM Tris, pH7.5, 0.2 mg/ml Axl, 5 mM ATP, 20 mM MgCl2 and 2 mM DTT at room temperature for 1 hour.
(§1) The kinase assay buffer contained 50 mM HEPES, pH7.5, 10 mM MgCl2, 1 mM EGTA, 0.01% NP-40 and 2 mM DTT. 0.1 ul test compounds dissolved in DMSO were transferred from compound plates to white 384-well assay plates (Greiner […] plates). […] 4 ul enzyme solution (or assay buffer for the enzyme blank) was added to the appropriate wells in each plate, and then 4 ul/well substrate solution was added to initiate the reaction. The plate was protected from light and incubated at room temperature for 60 min. […] The plate was incubated for 1 h at room temperature, and HTRF (homogenous time resolved fluorescence) signal was measured on a PHERAstar FS plate reader (BMG labtech). Percentage of inhibition was calculated for each concentration and IC50 value was generated from curve fitting with GraphPad Prism software.

[3] = target: c-Mer (Homo sapiens (Human), UniProt Q12866); assay: TAM Enzymatic Assay (HTRF), Mer; settings: 60 min, room temperature
Procedure: as §1

Sequence of c-Mer (Q12866 21-999): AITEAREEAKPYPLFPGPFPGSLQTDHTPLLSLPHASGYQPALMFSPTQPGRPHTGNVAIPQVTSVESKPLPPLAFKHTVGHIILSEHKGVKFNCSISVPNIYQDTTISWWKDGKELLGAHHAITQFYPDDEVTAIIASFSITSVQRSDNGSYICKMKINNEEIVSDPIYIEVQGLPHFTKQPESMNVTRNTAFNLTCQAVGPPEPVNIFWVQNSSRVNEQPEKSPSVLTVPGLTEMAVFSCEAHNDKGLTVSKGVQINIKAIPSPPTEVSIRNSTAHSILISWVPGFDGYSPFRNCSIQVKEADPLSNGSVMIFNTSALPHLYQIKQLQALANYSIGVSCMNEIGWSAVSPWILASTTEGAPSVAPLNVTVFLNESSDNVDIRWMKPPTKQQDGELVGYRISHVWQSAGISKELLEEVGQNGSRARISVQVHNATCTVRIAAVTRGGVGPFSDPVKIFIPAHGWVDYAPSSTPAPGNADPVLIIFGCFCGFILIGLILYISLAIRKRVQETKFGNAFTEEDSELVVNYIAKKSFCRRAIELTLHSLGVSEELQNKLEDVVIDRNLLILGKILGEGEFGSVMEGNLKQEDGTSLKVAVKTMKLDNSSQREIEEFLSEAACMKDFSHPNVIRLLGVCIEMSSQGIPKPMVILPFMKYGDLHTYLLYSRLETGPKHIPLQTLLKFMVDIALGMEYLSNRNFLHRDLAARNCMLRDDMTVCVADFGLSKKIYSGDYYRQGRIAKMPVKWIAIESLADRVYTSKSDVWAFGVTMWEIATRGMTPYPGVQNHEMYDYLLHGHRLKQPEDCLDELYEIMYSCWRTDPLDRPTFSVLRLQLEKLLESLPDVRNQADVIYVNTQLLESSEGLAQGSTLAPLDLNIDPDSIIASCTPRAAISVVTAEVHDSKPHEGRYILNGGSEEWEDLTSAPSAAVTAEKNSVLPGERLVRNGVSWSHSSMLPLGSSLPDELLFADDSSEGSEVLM
Sequence of Tyro3 (Q06418 41-890): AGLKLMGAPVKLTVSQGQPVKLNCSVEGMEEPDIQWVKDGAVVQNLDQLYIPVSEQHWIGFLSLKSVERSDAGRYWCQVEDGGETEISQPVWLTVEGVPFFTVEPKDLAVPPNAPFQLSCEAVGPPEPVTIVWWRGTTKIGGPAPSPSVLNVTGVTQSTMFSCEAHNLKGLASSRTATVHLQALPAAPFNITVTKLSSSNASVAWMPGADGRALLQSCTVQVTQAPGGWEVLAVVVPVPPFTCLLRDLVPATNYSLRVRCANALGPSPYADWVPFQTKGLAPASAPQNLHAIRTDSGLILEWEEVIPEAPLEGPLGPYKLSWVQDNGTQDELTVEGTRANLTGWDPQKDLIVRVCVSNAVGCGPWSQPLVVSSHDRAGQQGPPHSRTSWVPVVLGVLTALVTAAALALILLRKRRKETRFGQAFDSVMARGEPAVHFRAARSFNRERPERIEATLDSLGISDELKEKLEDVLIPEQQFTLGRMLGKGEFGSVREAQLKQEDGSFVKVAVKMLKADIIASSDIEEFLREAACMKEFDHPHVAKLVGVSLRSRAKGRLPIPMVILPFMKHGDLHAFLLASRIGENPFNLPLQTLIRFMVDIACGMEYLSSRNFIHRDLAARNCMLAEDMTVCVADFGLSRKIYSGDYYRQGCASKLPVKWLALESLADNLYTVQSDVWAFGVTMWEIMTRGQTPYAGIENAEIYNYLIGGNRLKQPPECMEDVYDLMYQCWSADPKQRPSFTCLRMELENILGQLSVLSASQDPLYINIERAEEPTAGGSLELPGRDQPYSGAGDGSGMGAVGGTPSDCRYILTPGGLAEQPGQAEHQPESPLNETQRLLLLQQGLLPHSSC
Sequence of phosphor-Axl (P30530 26-894): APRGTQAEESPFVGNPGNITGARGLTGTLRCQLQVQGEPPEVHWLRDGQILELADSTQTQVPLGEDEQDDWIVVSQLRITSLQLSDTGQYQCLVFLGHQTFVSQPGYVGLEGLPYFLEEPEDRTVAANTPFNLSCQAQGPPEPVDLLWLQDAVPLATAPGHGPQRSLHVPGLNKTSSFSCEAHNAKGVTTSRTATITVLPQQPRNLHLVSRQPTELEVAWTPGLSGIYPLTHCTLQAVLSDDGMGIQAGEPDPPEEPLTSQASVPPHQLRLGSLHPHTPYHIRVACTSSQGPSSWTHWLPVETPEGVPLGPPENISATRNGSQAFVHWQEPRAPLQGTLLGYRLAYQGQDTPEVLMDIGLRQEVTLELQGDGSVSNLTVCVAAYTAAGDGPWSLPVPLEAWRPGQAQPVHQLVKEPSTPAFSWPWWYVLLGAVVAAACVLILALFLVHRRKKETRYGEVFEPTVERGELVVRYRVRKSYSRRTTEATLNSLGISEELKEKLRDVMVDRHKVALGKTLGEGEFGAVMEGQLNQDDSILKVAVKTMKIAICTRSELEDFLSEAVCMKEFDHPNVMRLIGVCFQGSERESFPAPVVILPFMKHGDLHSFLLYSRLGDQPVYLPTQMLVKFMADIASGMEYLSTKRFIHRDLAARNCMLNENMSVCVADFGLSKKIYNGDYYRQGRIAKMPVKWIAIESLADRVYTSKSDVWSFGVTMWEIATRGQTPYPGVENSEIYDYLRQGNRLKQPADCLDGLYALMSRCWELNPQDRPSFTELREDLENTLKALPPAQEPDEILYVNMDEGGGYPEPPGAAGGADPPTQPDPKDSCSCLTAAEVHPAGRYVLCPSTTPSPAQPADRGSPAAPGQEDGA

Compound | IC50 [1] [nM] | IC50 [2] [nM] | IC50 [3] [nM]
CN(C)C(=O)N1CCC(c2cc(-c3ccc(NC(=O)c4cccn(-c5ccccc5)c4=O)cc3)c3c(N)ncnn23)CC1 [Example 44, N-[4-(4-Amino-7-{1-[(dimethylamino)carbonyl]piperidin-4-yl}pyrrolo[2,1-f][1,2,4]triazin-5-yl)phenyl]-2-oxo-1-phenyl-1,2-dihydropyridine-3-carboxamide] | > 100 | ≤ 5 | ≤ 5
Nc1ncnn2c(C3CCNCC3)cc(-c3ccc(NC(=O)c4cccn(-c5ccc(F)cc5)c4=O)cc3)c12 [Example 33, N-[4-(4-Amino-7-piperidin-4-ylpyrrolo[2,1-f][1,2,4]triazin-5-yl)phenyl]-1-(4-fluorophenyl)-2-oxo-1,2-dihydropyridine-3-carboxamide] | 10 to 100 | ≤ 5 | ≤ 5
CN1CCC(c2cc(-c3ccc(NC(=O)c4cccn(-c5ccc(F)cc5)c4=O)cc3)c3c(N)ncnn23)CC1 [Example 21, N-{4-[4-Amino-7-(1-methylpiperidin-4-yl)pyrrolo[2,1-f][1,2,4]triazin-5-yl]phenyl}-1-(4-fluorophenyl)-2-oxo-1,2-dihydropyridine-3-carboxamide] | – | – | ≤ 5
CCc1cc(-c2ccc(NC(=O)c3cccn(-c4ccccc4)c3=O)cc2F)c2c(N)ncnn12 [Example 12, N-[4-(4-Amino-7-ethylpyrrolo[2,1-f][1,2,4]triazin-5-yl)-3-fluorophenyl]-2-oxo-1-phenyl-1,2-dihydropyridine-3-carboxamide] | > 100 | – | ≤ 5
Nc1ncnn2c1c(-c1ccc(NC(=O)c3cccn(-c4ccc(F)cc4)c3=O)cc1)cc2[C@H]1CC[C@@H](O)CC1 [Example 17, N-{4-[4-Amino-7-(cis-4-hydroxycyclohexyl)pyrrolo[2,1-f][1,2,4]triazin-5-yl]phenyl}-1-(4-fluorophenyl)-2-oxo-1,2-dihydropyridine-3-carboxamide] | – | ≤ 5 | ≤ 5
CC(C)C(=O)N1CCC(c2cc(-c3ccc(NC(=O)c4ccc(-c5ccccn5)n(-c5ccccc5)c4=O)cc3)c3c(N)ncnn23)CC1 [Example 104, N-(4-(4-Amino-7-(1-isobutyrylpiperidin-4-yl)pyrrolo[2,1-f][1,2,4]triazin-5-yl)phenyl)-6-oxo-1-phenyl-1,6-dihydro-[2,2′-bipyridine]-5-carboxamide] | – | ≤ 5 | ≤ 5
Nc1ncnn2c(C3CCN(CCO)CC3)cc(-c3ccc(NC(=O)c4cccn(-c5ccc(F)cc5)c4=O)cc3)c12 [Example 53, N-(4-{4-Amino-7-[1-(2-hydroxyethyl)piperidin-4-yl]pyrrolo[2,1-f][1,2,4]triazin-5-yl}phenyl)-1-(4-fluorophenyl)-2-oxo-1,2-dihydropyridine-3-carboxamide] | – | – | ≤ 5
Nc1ncnn2c(C3CCOCC3)cc(-c3ccc(NC(=O)c4cccn(-c5ccccc5)c4=O)cc3F)c12 [Example 15, N-{4-[4-Amino-7-(tetrahydro-2H-pyran-4-yl)pyrrolo[2,1-f][1,2,4]triazin-5-yl]-3-fluorophenyl}-2-oxo-1-phenyl-1,2-dihydropyridine-3-carboxamide] | – | ≤ 5 | ≤ 5
Nc1ncnn2c1c(-c1ccc(NC(=O)c3cccn(-c4ccccc4)c3=O)cc1)cc2[C@H]1CC[C@@H](O)CC1 [7 (cis isomer), N-{4-[4-Amino-7-(cis-4-hydroxycyclohexyl)pyrrolo[2,1-f][1,2,4]triazin-5-yl]phenyl}-2-oxo-1-phenyl-1,2-dihydropyridine-3-carboxamide] | – | – | ≤ 5
CCn1cc(C(=O)Nc2ccc(-c3cc(C4CCN(C(=O)N(C)C)CC4)n4ncnc(N)c34)cc2)c(=O)n(-c2cccc(F)c2)c1=O [Example 72, N-(4-(4-Amino-7-(1-(dimethylcarbamoyl)piperidin-4-yl)pyrrolo[1,2-f][1,2,4]triazin-5-yl)phenyl)-1-ethyl-3-(3-fluorophenyl)-2,4-dioxo-1,2,3,4-tetrahydropyrimidine-5-carboxamide] | > 100 | ≤ 5 | –
Cc1c(N2CCOCC2)cc(C(=O)Nc2ccc(-c3cc(C4CCN(C(=O)C(C)C)CC4)n4ncnc(N)c34)cc2)c(=O)n1-c1ccccc1 [Example 110, N-{4-[4-Amino-7-(1-isobutyrylpiperidin-4-yl)pyrrolo[2,1-f][1,2,4]triazin-5-yl]phenyl}-6-methyl-5-morpholin-4-yl-2-oxo-1-phenyl-1,2-dihydropyridine-3-carboxamide] | > 100 | ≤ 5 | –
CC(C)C(=O)N1CCC(c2cc(-c3ccc(NC(=O)c4cn(C(C)C)c(=O)n(-c5ncccn5)c4=O)cc3)c3c(N)ncnn23)CC1 [Example 143, N-(4-(4-Amino-7-(1-isobutyrylpiperidin-4-yl)pyrrolo[1,2-f][1,2,4]triazin-5-yl)phenyl)-1-isopropyl-2,4-dioxo-3-(pyrimidin-2-yl)-1,2,3,4-tetrahydropyrimidine-5-carboxamide] | > 100 | ≤ 5 | –
Cc1ncccc1-c1c(C)n(C2CC2)cc(C(=O)Nc2ccc(-c3cc(C4CCN(C(=O)C(C)C)CC4)n4ncnc(N)c34)cc2)c1=O [Example 142, N-(4-(4-Amino-7-(1-isobutyrylpiperidin-4-yl)pyrrolo[2,1-f][1,2,4]triazin-5-yl)phenyl)-1-cyclopropyl-2,2′-dimethyl-4-oxo-1,4-dihydro-[3,3′-bipyridine]-5-carboxamide] | > 100 | ≤ 5 | –
CC(C)C(=O)N1CCC(c2cc(-c3ccc(NC(=O)c4cc(C5CC5)nn(-c5ccccc5)c4=O)cc3)c3c(N)ncnn23)CC1 [Example 117, N-{4-[4-Amino-7-(1-isobutyrylpiperidin-4-yl)pyrrolo[2,1-f][1,2,4]triazin-5-yl]phenyl}-6-cyclopropyl-3-oxo-2-phenyl-2,3-dihydropyridazine-4-carboxamide] | > 100 | ≤ 5 | –
Cc1c(-c2cnn(C)c2)cc(C(=O)Nc2ccc(-c3cc(C4CCN(C(=O)C(C)C)CC4)n4ncnc(N)c34)cc2)c(=O)n1-c1ccccc1 [Example 107, N-{4-[4-Amino-7-(1-isobutyrylpiperidin-4-yl)pyrrolo[2,1-f][1,2,4]triazin-5-yl]phenyl}-6-methyl-5-(1-methyl-1H-pyrazol-4-yl)-2-oxo-1-phenyl-1,2-dihydropyridine-3-carboxamide] | > 100 | ≤ 5 | –
CC(C)n1cc(C(=O)Nc2ccc(-c3cc(C4CN(C(=O)C5CC5)C4)n4ncnc(N)c34)cc2)c(=O)n(-c2ccccc2)c1=O [Example 94, N-(4-(4-amino-7-(1-(cyclopropanecarbonyl)azetidin-3-yl)pyrrolo[2,1-f][1,2,4]triazin-5-yl)phenyl)-1-isopropyl-2,4-dioxo-3-phenyl-1,2,3,4-tetrahydropyrimidine-5-carboxamide] | > 100 | ≤ 5 | –
Nc1ncnn2c1c(-c1ccc(NC(=O)c3cccn(-c4ccccc4)c3=O)cc1)cc2[C@H]1CC[C@H](O)CC1 [7 (trans isomer), N-{4-[4-Amino-7-(trans-4-hydroxycyclohexyl)pyrrolo[2,1-f][1,2,4]triazin-5-yl]phenyl}-2-oxo-1-phenyl-1,2-dihydropyridine-3-carboxamide] | – | – | ≤ 5
CC(C)C(=O)N1CCC(c2cc(-c3ccc(NC(=O)c4cc5c(n(-c6cncc(F)c6)c4=O)CCC(C)(C)C5=O)cc3)c3c(N)ncnn23)CC1 [Example 115, N-(4-(4-Amino-7-(1-isobutyrylpiperidin-4-yl)pyrrolo[1,2-f][1,2,4]triazin-5-yl)phenyl)-1-(5-fluoropyridin-3-yl)-6,6-dimethyl-2,5-dioxo-1,2,5,6,7,8-hexahydroquinoline-3-carboxamide] | > 100 | ≤ 5 | –
Nc1ncnn2c1c(-c1ccc(NC(=O)c3cccn(-c4ccccc4)c3=O)cc1F)cc2[C@H]1CC[C@@H](O)CC1 [Example 18, N-{4-[4-Amino-7-(cis-4-hydroxycyclohexyl)pyrrolo[2,1-f][1,2,4]triazin-5-yl]-3-fluorophenyl}-2-oxo-1-phenyl-1,2-dihydropyridine-3-carboxamide] | – | ≤ 5 | ≤ 5
Cc1cc(NC(=O)c2cn(C(C)C)c(=O)n(-c3ccccc3)c2=O)ccc1-c1cc(C2CCN(C(=O)C(C)C)CC2)n2ncnc(N)c12 [Example 77, N-(4-(4-Amino-7-(1-isobutyrylpiperidin-4-yl)pyrrolo[1,2-f][1,2,4]triazin-5-yl)-3-methylphenyl)-1-isopropyl-2,4-dioxo-3-phenyl-1,2,3,4-tetrahydropyrimidine-5-carboxamide] | > 100 | ≤ 5 | –
Cc1c(-c2ccnn2C)cc(C(=O)Nc2ccc(-c3cc(C4CCN(C(=O)C(C)C)CC4)n4ncnc(N)c34)cc2)c(=O)n1-c1cccnc1 [Example 134, N-(4-(4-Amino-7-(1-isobutyrylpiperidin-4-yl)pyrrolo[2,1-f][1,2,4]triazin-5-yl)phenyl)-6-methyl-5-(1-methyl-1H-pyrazol-5-yl)-2-oxo-2H-[1,3′-bipyridine]-3-carboxamide] | > 100 | ≤ 5 | –
